Experiments:
RpfG [1] = system: RpfG
RpfG [2] = system: RpfG; remark: listed apart in the source

RpfG, sequence (G7TEN6 1-378): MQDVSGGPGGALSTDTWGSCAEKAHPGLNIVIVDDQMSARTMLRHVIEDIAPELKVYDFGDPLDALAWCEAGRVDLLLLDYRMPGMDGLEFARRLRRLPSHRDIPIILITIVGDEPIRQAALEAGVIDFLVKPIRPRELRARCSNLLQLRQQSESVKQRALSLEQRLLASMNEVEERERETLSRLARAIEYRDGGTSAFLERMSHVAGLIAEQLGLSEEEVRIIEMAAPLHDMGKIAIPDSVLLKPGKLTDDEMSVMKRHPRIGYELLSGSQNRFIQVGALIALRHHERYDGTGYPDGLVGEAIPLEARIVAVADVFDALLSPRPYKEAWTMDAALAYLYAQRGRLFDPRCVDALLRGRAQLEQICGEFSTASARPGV

Row | Compound | colorimetric phosphodiesterase assay at 410 nm (RpfG [1]) | HPLC phosphodiesterase assay (RpfG [2])
1 | O=[N+]([O-])c1ccc(OP(=O)(O)Oc2ccc([N+](=O)[O-])cc2)cc1 [bis(p-nitrophenyl) phosphate] | RpfG efficiently converted bis(p-nitrophenyl) phosphate into p-nitrophenol | –
2 | Nc1nc2c(ncn2[C@@H]2O[C@@H]3COP(=O)(O)O[C@H]4[C@@H](O)[C@H](n5cnc6c(=O)[nH]c(N)nc65)O[C@@H]4COP(=O)(O)O[C@H]3[C@H]2O)c(=O)[nH]1 [c-di-GMP] | – | degraded product pGpG was produced when RpfG was incubated with c-di-GMP

From paper PMC4823724 (Scientific Reports, 2016)
